This experiment concerns the target T1, human eIF4E (Homo sapiens, UniProt P06730).
T1 construct: made in house
The experiment in a line: biochemical assay of peptide binding to human eIF4E (displacement of biotin labeled 4G2 peptide). The protocol:
A biochemical assay was run to test peptide binding to human eIF4E.
Human eIF4E (aa 28-217, SEQ ID NO: 87) with a C-terminal His tag (HH-eIF4E, SEQ ID NO: 88) was expressed in E. coli in inclusion bodies. The protein was solubilized with 8 M urea and purified under denaturing conditions using nickel-charged HisTrap HP columns (GE Healthcare). The protein was refolded by diluting to approximately 0.25 mg/mL with 6 M urea, 20 mM Hepes pH 7.0, 500 mM NaCl, 1 mM DTT, 1 mM EDTA, and 0.5 M arginine.HCl, and then dialyzing overnight into the same buffer without the urea. The protein was further dialyzed into 20 mM Hepes pH 6.5, 50 mM NaCl, 1 mM EDTA, and 1 mM DTT, filtered, and then concentrated using Hitrap SP sepharose FF columns (GE Healthcare). The protein was dialyzed into 20 mM Hepes pH 7.0, 500 mM NaCl, 5 mM DTT, and 10% glycerol and stored at −80° C. until use.
Test peptides (1.6 mM stock in DMSO) were diluted 3 fold in series in DMSO and solutions were diluted 4 fold in Assay Buffer (50 mM NaPi, pH 6.5, 50 mM KCl, 1 mM DTT, 0.004% NP40 and 0.5 mg/ml gammaglobulin). Six microliters per well of diluted peptide solutions and 12 microliters per well of 187.5 nM HH-eIF4E in Assay Buffer were added to 384-well polypropylene microplates (Matrix, Thermal Scientific). Twelve microliters per well of 187.5 nM biotin labeled 4G2 peptide (Ac-[…]Aha-Bio)-NH2 (SEQ ID NO: 91) 1:2 TFA) in Assay Buffer was added. The samples were incubated at room temperature for 20 minutes.
Six microliters per well of 4.8 nM Eu-streptavidin (Columbia Biosciences) and 48 nM Allophycocyanin-anti His antibody (Columbia Biosciences) in Assay Buffer (without DTT) were then added and the samples were incubated at room temperature for 30 min. Assay signals were monitored by reading emission fluorescence at 665 nm on an Envision Reader (PerkinElmer Life and Analytical Sciences). IC50 values were calculated using Condoseo software (Genedata AG, Basel, Switzerland).

Where [1] appears, read: IC50 (μM), Table 2a, cell penetrating peptides with the Y----LL-F and YWLLALFVY motifs.
Setting [2] is: IC50 (μM), Table 2, cell-penetrating peptides with the Y----LL-F motif.
The mark [3] stands for this setting: IC50 (μM), Table 3, cell-penetrating peptides without the Y----LL-F motif.

Where two headings read alike, the source gives them in different places. Square brackets hold non-standard residues; d marks the D form. Peptide text beside a SMILES is read from it. tBuAla = CC(C)(C)C[C@H](N)C(=O)O; Nle = CCCC[C@H](N)C(=O)O

T1 sequence (P06730 with tags, fused parts or gaps): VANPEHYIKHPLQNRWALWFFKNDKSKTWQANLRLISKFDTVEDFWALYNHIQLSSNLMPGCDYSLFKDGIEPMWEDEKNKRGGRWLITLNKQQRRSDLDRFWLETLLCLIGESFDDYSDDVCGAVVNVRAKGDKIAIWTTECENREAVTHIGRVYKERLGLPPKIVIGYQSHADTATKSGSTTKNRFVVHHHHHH

With “Ac-MANLAYWLLALFVYMFTDLRLFKKRPKP-NH2 [SEQ ID NO: 42]”, the IC50 – broadly, the concentration at which inhibition is half-maximal – under setting [1] is 3.91 µM. Turning to “Ac-MANLAYWLLALFVYLWTDLRLFKKRPKP-NH2 [SEQ ID NO: 38]”, the half-maximal inhibitory concentration (IC50) under setting [1] was found to be 3.04 µM. Consider Ac-KQYDREFLLDFQFMPA-NH2 [SEQ ID NO: 52], for which, where the note is “Table 1, peptides which bind eIF4E but are not cell-penetrating, read-out: IC50”, the IC50 was 10.5 µM. With “Ac-NLAYWLLALFVYMWTDLRLFKKRPKP-NH2 [SEQ ID NO: 35]”, the IC50 under setting [1] amounted to 5.04 µM. In the case of `CCCC[C@H](NC(=O)[C@H](Cc1ccccc1)NC(=O)[C@H](CCC(N)=O)NC(=O)[C@H](Cc1ccccc1)NC(=O)[C@H](C)NC(=O)[C@H](CC(C)C)NC(=O)[C@H](CC(C)C)NC(=O)[C@H](Cc1ccccc1)NC(=O)[C@H](CCC(=O)O)NC(=O)[C@H](CCCNC(=N)N)NC(=O)[C@H](CC(=O)O)NC(=O)[C@H](Cc1ccc(O)cc1)NC(=O)[C@H](CCCNC(=N)N)NC(=O)[C@H](CCCCN)NC(C)=O)C(=O)N[C@H](C(=O)N[C@@H](Cc1ccc(O)cc1)C(=O)N[C@@H](CC(=O)O)C(=O)N[C@@H](CC(C)C)C(=O)NCC(=O)N[C@@H](CC(C)C)C(=O)N[C@@H](CCCNC(=N)N)C(=O)N[C@@H](CCCNC(=N)N)C(=O)N[C@@H](CC(C)C)C(=O)N[C@@H](CCCNC(=N)N)C(=O)N[C@@H](CCC(N)=O)C(=O)N[C@@H](CCCNC(=N)N)C(=O)N[C@@H](CCCNC(=N)N)C(=O)N[C@@H](CCCNC(=N)N)C(=O)N[C@@H](CC(C)C)C(=O)N[C@@H](CCCNC(=N)N)C(=O)N[C@@H](CCCNC(=N)N)C(N)=O)C(C)C` [SEQ ID NO: 7] (Ac-KRYDREFLLAFQF[Nle]VYDLGLRRLRQRRRLRR-NH2), the concentration for half-maximal inhibition (IC50) (HH-eIF4E, biotin labeled 4G2 peptide, read-out: Binding affinities expressed as IC50) came to 0.21 µM. “Ac-MYKSKILLWFLVLFVAMWSDVALAKKRPKP-NH2 [SEQ ID NO: 19]”: the concentration for half-maximal inhibition (IC50) under setting [2] was 7.21 µM.

In the case of “Ac-GAAEAAAYVYDLLLRFLRQRRRLRRERVRA-NH2 [SEQ ID NO: 25]”, the 50% inhibitory concentration (IC50) (Table 2, cell-penetrating peptides with the Y----LL-F motif, read-out: IC50) is 11 µM. Under setting [1], `CSCC[C@H](NC(=O)[C@H](Cc1ccc(O)cc1)NC(=O)[C@@H](NC(=O)[C@H](Cc1ccccc1)NC(=O)[C@H](CC(C)C)NC(=O)[C@H](C)NC(=O)[C@H](CC(C)C)NC(=O)[C@H](CC(C)C)NC(=O)[C@H](Cc1c[nH]c2ccccc12)NC(=O)[C@H](Cc1ccc(O)cc1)NC(=O)[C@H](C)NC(=O)[C@H](CC(C)C)NC(C)=O)C(C)C)C(=O)N[C@@H](Cc1c[nH]c2ccccc12)C(=O)N[C@H](C(=O)N[C@@H](CC(=O)O)C(=O)N[C@@H](CC(C)C)C(=O)N[C@@H](CCCNC(=N)N)C(=O)N[C@@H](CC(C)C)C(=O)N[C@@H](CC(C)(C)C)C(=O)N[C@@H](CCCCN)C(=O)N[C@@H](CCCCN)C(=O)N[C@@H](CCCNC(=N)N)C(=O)N1CCC[C@H]1C(=O)N[C@@H](CCCCN)C(=O)N1CCC[C@H]1C(N)=O)[C@@H](C)O` [SEQ ID NO: 32] (Ac-LAYWLLALFVYMWTDLRL[tBuAla]KKRPKP-NH2) came in with an IC50 of 4.73 µM. In the case of “Ac-MANLGYWLLALFVYMWTDLLLFKKRPKP-NH2 [SEQ ID NO: 16]”, the half-inhibitory concentration (IC50) under setting [2] amounted to 3.03 µM. Take “Ac-MYKSKILLWFLVLFVAMWSDVGLCKKRPKP-NH2 [SEQ ID NO: 14]”: the half-maximal inhibitory concentration (IC50) under setting [2] turned out to be 3.62 µM.

Take “Ac-LAYWLLALFVAMWTDLRLFKKRPKP-NH2 [SEQ ID NO: 49]”: the IC50 under setting [3] worked out at 1.99 µM. In turn, `CCCC[C@H](NC(=O)[C@H](CC(C)C)NC(=O)[C@H](CC(=O)O)NC(=O)[C@@H](NC(=O)[C@H](Cc1c[nH]c2ccccc12)NC(=O)[C@H](CCSC)NC(=O)[C@H](Cc1ccc(O)cc1)NC(=O)[C@@H](NC(=O)[C@H](Cc1ccccc1)NC(=O)[C@H](CC(C)C)NC(=O)[C@H](C)NC(=O)[C@H](CC(C)C)NC(=O)[C@H](CC(C)C)NC(=O)[C@H](Cc1c[nH]c2ccccc12)NC(=O)[C@H](Cc1ccc(O)cc1)NC(=O)[C@H](CCCCN)NC(=O)[C@H](CC(C)C)NC(=O)[C@H](CCCCN)NC(=O)[C@H](C)NC(=O)[C@H](CCSC)NC(C)=O)C(C)C)[C@@H](C)O)C(=O)N[C@@H](CC(C)C)C(=O)N[C@@H](Cc1ccccc1)C(=O)N[C@@H](CCCCN)C(=O)N[C@@H](CCCCN)C(=O)N[C@@H](CCCNC(=N)N)C(=O)N1CCC[C@H]1C(=O)N[C@@H](CCCCN)C(=O)N1CCC[C@H]1C(N)=O` [SEQ ID NO: 29] (Ac-MAKLKYWLLALFVYMWTDL[Nle]LFKKRPKP-NH2) displayed an IC50 under setting [1] of 7.39 µM.

Under setting [1], `CCCC[C@H](NC(=O)[C@H](CC(C)C)NC(=O)[C@H](CC(=O)O)NC(=O)[C@@H](NC(=O)[C@H](Cc1c[nH]c2ccccc12)NC(=O)[C@H](CCSC)NC(=O)[C@H](Cc1ccc(O)cc1)NC(=O)[C@@H](NC(=O)[C@H](Cc1ccccc1)NC(=O)[C@H](CC(C)C)NC(=O)[C@H](C)NC(=O)[C@H](CC(C)C)NC(=O)[C@H](CC(C)C)NC(=O)[C@H](Cc1c[nH]c2ccccc12)NC(=O)[C@H](Cc1ccc(O)cc1)NC(=O)[C@H](C)NC(=O)[C@H](CC(C)C)NC(=O)[C@H](C)NC(=O)[C@H](C)NC(=O)[C@H](CCSC)NC(C)=O)C(C)C)[C@@H](C)O)C(=O)N[C@@H](CC(C)C)C(=O)N[C@@H](Cc1ccccc1)C(=O)N[C@@H](CCCCN)C(=O)N[C@@H](CCCCN)C(=O)N[C@@H](CCCNC(=N)N)C(=O)N1CCC[C@H]1C(=O)N[C@@H](CCCCN)C(=O)N1CCC[C@H]1C(N)=O` [SEQ ID NO: 28] (Ac-MAALAYWLLALFVYMWTDL[Nle]LFKKRPKP-NH2) displayed an IC50 of 4.59 µM. In turn, “Ac-MVKSKIYSWILLLFFAMWSDVKLKKKRPKP-NH2 [SEQ ID NO: 21]” showed a 50% inhibitory concentration (IC50) under setting [2] of 6.85 µM. “Ac-AYWLLALFVYMWTDLRLFKKRPKP-NH2 [SEQ ID NO: 36]”: the IC50 under setting [1] worked out at 2.53 µM.

Molecule “Ac-MANLAYWLLALFVYRWTDLRLFKKRPKP-NH2 [SEQ ID NO: 41]” came in with an IC50 under setting [1] of 3.48 µM.

Under setting [1], “Ac-YWLLALFVYMWTDLRLFKKRPKP-NH2 [SEQ ID NO: 37]” displayed an IC50 of 2.9 µM. As to “Ac-MVKSKIYSWILLLFFAMWSDVGLCKKRPKP-NH2 [SEQ ID NO: 15]”, under setting [2], the 50% inhibitory concentration (IC50) was determined as 5.2 µM. With “Ac-MVKSKIYSWILLLFFAMWSDVALAKKRPKP-NH2 [SEQ ID NO: 20]”, the 50% inhibitory concentration (IC50) under setting [2] came out at 9.96 µM. Same read-out and setting: the figure for “Ac-MVKYKIGSLLLFLFVAMWSDVGLCKKRPKP-NH2 [SEQ ID NO: 12]” is 4.13 µM. Molecule “Ac-ANLAYWLLALFVYMWTDLRLFKKRPKP-NH2 [SEQ ID NO: 34]” registered a half-inhibitory concentration (IC50) under setting [1] of 2.22 µM. Consider “Ac-LLALFVYMWTDLRLFKKRPKP-NH2 [SEQ ID NO: 51]”, for which, under setting [3], the IC50 stood at 3.75 µM. As for `CCCC[C@H](NC(=O)[C@H](Cc1ccc(O)cc1)NC(=O)[C@@H](NC(=O)[C@H](Cc1ccccc1)NC(=O)[C@H](CC(C)C)NC(=O)[C@H](C)NC(=O)[C@H](CC(C)C)NC(=O)[C@H](CC(C)C)NC(=O)[C@H](Cc1c[nH]c2ccccc12)NC(=O)[C@H](Cc1ccc(O)cc1)NC(=O)[C@H](C)NC(=O)[C@H](CC(C)C)NC(=O)[C@H](CC(N)=O)NC(=O)[C@H](C)NC(=O)[C@H](CCSC)NC(C)=O)C(C)C)C(=O)N[C@@H](Cc1c[nH]c2ccccc12)C(=O)N[C@H](C(=O)N[C@@H](CC(=O)O)C(=O)N[C@@H](CC(C)C)C(=O)N[C@@H](CCCNC(=N)N)C(=O)N[C@@H](CC(C)C)C(=O)N[C@@H](Cc1ccccc1)C(=O)N[C@@H](CCCCN)C(=O)N[C@@H](CCCCN)C(=O)N[C@@H](CCCNC(=N)N)C(=O)N1CCC[C@H]1C(=O)N[C@@H](CCCCN)C(=O)N1CCC[C@H]1C(N)=O)[C@@H](C)O` [SEQ ID NO: 39] (Ac-MANLAYWLLALFVY[Nle]WTDLRLFKKRPKP-NH2), under setting [1], the IC50 was determined as 1.75 µM. Consider “Ac-MVKYKIASLLLFLFVAMWSDVKLKKKRPKP-NH2 [SEQ ID NO: 18]”, for which the 50% inhibitory concentration (IC50) under setting [2] was 6.71 µM. “Ac-LAYWLLALFVYMWTDLRLAKKRPKP-NH2 [SEQ ID NO: 33]” showed a half-maximal inhibitory concentration (IC50) under setting [1] of 6.24 µM. Turning to `CCCC[C@H](NC(=O)[C@H](CC(C)C)NC(=O)[C@H](CO)NC(=O)[C@H](C)NC(=O)[C@@H](NC(=O)[C@H](CCCCN)NC(=O)[C@H](Cc1ccc(O)cc1)NC(=O)[C@H](CCCCN)NC(=O)[C@@H](NC(=O)[C@H](CCSC)NC(C)=O)C(C)C)[C@@H](C)CC)C(=O)N[C@@H](CC(C)C)C(=O)N[C@@H](Cc1ccccc1)C(=O)N[C@@H](CC(C)C)C(=O)N[C@@H](Cc1ccccc1)C(=O)N[C@H](C(=O)N[C@@H](C)C(=O)N[C@@H](CCSC)C(=O)N[C@@H](Cc1c[nH]c2ccccc12)C(=O)N[C@@H](CO)C(=O)N[C@@H](CC(=O)O)C(=O)N[C@H](C(=O)N[C@@H](C)C(=O)N[C@@H](CC(C)C)C(=O)N[C@@H](C)C(=O)N[C@@H](CCCCN)C(=O)N[C@@H](CCCCN)C(=O)N[C@@H](CCCNC(=N)N)C(=O)N1CCC[C@H]1C(=O)N[C@@H](CCCCN)C(=O)N1CCC[C@H]1C(N)=O)C(C)C)C(C)C` [SEQ ID NO: 45] (Ac-MVKYKIASL[Nle]LFLFVAMWSDVALAKKRPKP-NH2), the IC50 under setting [3] was determined as 3.06 µM. As to “Ac-MVKYKIASLLLFLFVAMWSDVALAKKRPKP-NH2 [SEQ ID NO: 17]”, the IC50 under setting [2] worked out at 12.5 µM. On to “Ac-WLLALFVYMWTDLRLFKKRPKP-NH2 [SEQ ID NO: 50]”, for which the IC50 under setting [3] was 2.36 µM.

The values above are taken from patent publication US9409961B2, “Cell penetrating peptides to target EIF4E” (Hoffmann-La Roche Inc., priority 2012, dated 2016).
